The record followed here is PMC10721786, “Development of a potent benzonitrile-based inhibitor of glutaminyl-peptide cyclotransferase-like protein (QPCTL) with antitumor efficacy” (Signal Transduction and Targeted Therapy, 2023).

One data set deals with Raji and B16F10 cells. Put plainly: Cell viability (CCK-8) in Raji and B16F10 cells. It is filed as cell-based. Conditions: Fig. S5. As for the experimental part:
Raji cells (5000 cells/well), B16F10 cells (3000 cells/well) and BMDM (10000 cells/well) were plated in 96-well and cell viability was examined at the time points shown in the figures, with the help of Cell Counting Kit 8 (CCK-8) (Share-bio, Cat. # B-CCK8) according to the manufacturer’s recommendations.

In another data set the test system is Raji cells. Put plainly: In vitro phagocytosis of Raji cells by mouse macrophages. In kind it is cell-based, human. As for the experimental part: (§1) Eight-week-old C57BL/6 wild-type mice were obtained from Shanghai Slaccas Laboratory Animal Co., Ltd.. To obtain bone marrow derived macrophage (BMDM), femora and tibiae were flushed with ice-cold PBS, and erythrocytes were lysed with RBC lysis buffer. Then bone marrow cells were cultured in DMEM medium with 10 % FBS and 100 U/ mL penicillin, and 100 μg/ mL streptomycin in the presence of 50 ng/ mL mouse M-CSF (Macrophage-Colony Stimulating Factor) (PeproTech), 0.1 mM Sodium pyruvate (Gibco, Cat. # 11360-70) and 10 mM HEPES (Gibco, Cat. # 15630-080) for 7 days.
(§2) Phagocytosis assay were conducted as previously described. Briefly, macrophages were plated 1 x 10^5 cells per well in a 48-well plate in complete DMEM medium, supplemented with M-CSF overnight before the experiment. Cancer cells were stained with 5 μM CFSE at 37 °C for 10 min. Each phagocytotic reaction reported in this work was performed by co-culture of target cells and macrophages for 4 hours at 37 °C. Macrophages were identified with APC-labeled anti-F4/80 (Biolegend, Cat. # 123116), and flow cytometry (BD FACSCanto II, San Jose, CA) was performed. Phagocytosis was calculated as the percentage of CFSE^+F4/80^+ cells (Q2) among CFSE^+ cells (Q2+Q3): phagocytosis (%) = [Q2 / (Q2+ Q3)] x100 %.

The test system of the next data set is CD47/SIRPα. Description: Cell surface binding of human or mouse SIRPα protein to tumor cells (Raji, B16F10), flow cytometry. It is filed as cell-based. As for the experimental part:
(§3) Binding to cell surface CD47 was assessed by staining cells with fluorochrome-labeled antibodies clone CC2C6 (BioLegend, Cat. # 323102) and B6H12 (Abcam, Cat. # ab134485) to human CD47 at a dilution of 1:100 in PBS containing 1% FBS (FACS buffer) for 30 min on ice, while protected from light. SIRPα binding to CD47 was assessed by incubating cells with PE labeled recombinant human SIRPα/ CD172α Protein, Fc tag (ACRO Biosystems, Cat. # SIA-HP252) or PE labeled mouse SIRPα Protein, His tag (ACRO Biosystems, Cat. # SIA-MP2H6) for 1 hour on ice, while protected from light.

The next data set relates to B16F10 cells. Description: In vitro phagocytosis of B16F10 cells by mouse macrophages. In kind it is cell-based. As to the method:
as §1, §2

For another data set, the system named is pGlu-CD47. Description: hCD47-CC2C6 binding to various cancer cells (H929, HCT116, Huh7, SKOV3, SU-DHL-8, T24, H1299, MCF-7). In kind it is cell-based, human. Conditions: 500 nM, 48 h. As to the method:
as §3

For the compound `Cn1cncc1C1CCN(c2c(C#N)cccc2-c2ccc(F)nc2)CC1` [QP5038], the cell viability entry in the data set with Raji and B16F10 cells is on record as “did not markedly impair”. In addition, the “phagocytosis of Raji cells” value with Raji cells (10 μM inhibitor 48 h, synergized with rituximab, mouse macrophages) is reported as “significantly boosted”. Moreover, in the data set with Raji cells (48 h, 10 µM), the “flow cytometry quadrant Q1” value is 26.4, the “flow cytometry quadrant Q2 (CFSE+F4/80+ cells)” value came out at 2.74, the “flow cytometry quadrant Q3” value worked out at 70.1 and the “flow cytometry quadrant Q4” value is recorded as 0.70. The “binding of human or mouse SIRPα protein to cell surface” value in the data set on CD47/SIRPα was “significantly reduced”. The “phagocytosis of B16F10 cells” value in the data set with B16F10 cells (10 μM inhibitor 48 h, in combination with TA99, mouse macrophages) was “significantly boosted”. Besides, in the data set with B16F10 cells (48 h, 10 µM), the “flow cytometry quadrant Q1” value was found to be 34.7, the “flow cytometry quadrant Q2 (CFSE+F4/80+ cells)” value turned out to be 5.39, the “flow cytometry quadrant Q3” value came to 59.0 and the “flow cytometry quadrant Q4” value is listed as 0.89. Besides, in the data set on B16F10 cells (B16F10 and Raji cells, 10 μM 48 h, Fig. 1h–k, Fig. S6), the “efficiency on phagocytosis compared with SEN177 and PQ912” value was “much better than that of SEN177 and PQ912”. Further, the “CD47 pyroglutamation in various types of cancer cells” value in the data set on pGlu-CD47 is listed as “significantly attenuated”.
